In patent US20260306452A1, “5-METHOXY-N,N-DIMETHYLTRYPTAMINE (5-MEO-DMT) PHARMACEUTICAL COMPOSITIONS” (Beckley Psytech Limited, priority 2023, published 2026):
Structures can show the parent of a compound that is named as a salt. Where two headings read alike, the source gives them in different places.

Assays:
[1] = Phase 1 single ascending dose study, intranasal 5-MeO-DMT HCl, plasma pharmacokinetics; type: in vivo, human (healthy subjects)
Procedure: In an embodiment, there is provided a dose-proportional salt of 5-MeO-DMT for use in the methods disclosed herein. In an embodiment, the dose-proportional salt of 5-MeO-DMT is the benzoate salt. A double-blind, randomised, Phase 1, single ascending dose study to evaluate the safety, tolerability and pharmacokinetic profile of intranasal 5-MeO-DMT HCl (5-MeO-DMT HCl, HPMC, water for injection (WFI) and a sodium hydroxide solution to adjust pH) in healthy subjects was performed.

[2] = Subjective Dose Intensity (SDI) / duration of the trip; type: in vivo, human
[3] = Hygroscopicity / water uptake; type: physicochemical; details: for total water uptake: between 0% RH and 90% RH at 25° C.
Procedure: (§1) In an embodiment, the 5-MeO-DMT is administered as a crystalline form of the benzoate salt. Crystalline forms of the benzoate salt are disclosed in WO2021250434 and are incorporated herein. Crystalline forms of the hydrochloride salt are also disclosed in WO2021250434 and are incorporated herein. In an embodiment, crystalline 5-MeO-DMT hydrochloride is characterised by peaks in an X-ray powder diffraction (XRPD) diffractogram at 2θ values of 9.2°±0.1°, 12.2°±0.1°, 14.1°±0.1°, 15.0°±0.1°, 18.5°±0.1°, and 19.5°±0.1°, as measured using an X-ray wavelength of 1.5406 Å. In an embodiment, the 5-MeO-DMT salt is a non-hygroscopic salt. […] The non-hygroscopic, highly soluble HBr salt of 5-MeO-DMT therefore affords the advantage of removing the need for costly and burdensome processing measures, for example the need for low humidity manufacturing environment.

[4] = type: in vivo, human (healthy subjects)
Procedure: A double-blind, randomised, Phase 1, single ascending dose study to evaluate the safety, tolerability and pharmacokinetic profile of intranasal 5-MeO-DMT benzoate in healthy subjects was performed.

[5] = 30-item Mystical Experience Questionnaire (MEQ30), mystical / peak experience; type: in vivo, human
Description: The MEQ30 is a self-report measure that has been used to measure mystical-type experiences in studies of psychedelics. It is known that the occurrence of a mystical experience, following treatment with a psychedelic, is a primary predictor of therapeutic outcomes in patients. Typically, a complete mystical experience is defined as scoring 60% or more on all four factors of the MEQ30. The four factors of the MEQ30 are: mystical, positive mood, transcendence of time and space, and ineffability. Subjects being treated with the 5-MeO-DMT salt are coached prior to dosing, but nevertheless for some subjects, a rapid onset of an intense Mystical Experience can be unsettling. In such a scenario, the medical practitioners and associated support system is also put under an additional monitoring and care load. So, the frequency/likelihood of rapid onset of an intense Mystical Experience using the 5-MeO-DMT salt should be minimised or substantially eliminated.
Each quadrant of a pie is fully coloured if a value equal to or greater than 3 is reached for that dimension (wherein the four quadrants represent the four factors of the MEQ30: mystical, positive mood, transcendence of time and space, and ineffability). Each pie represents a single individual who received the respective dose. It can be seen that the 4/6 individuals who received 12 mg total dose of 5-MeO-DMT benzoate in a biphasic fashion achieved mystical experiences, which represents a 66% success rate.

[6] = type: in vivo, human
Description: For example, some subjects report nasal discomfort when treated with a single intranasal dose of a salt of 5-MeO-DMT. Additionally, some subjects experienced nausea and vomiting when given a higher single dose of a salt of 5-MeO-DMT. So, the frequency/likelihood of physical discomfort when using the 5-MeO-DMT salt should be minimised or substantially eliminated.

Irritation tolerability = details: in particular compared to the chloride salt
Solubility of salts = type: physicochemical; details: compared to moderately hygroscopic salts, e.g. benzoate or oxalate
Procedure: as §1

[7] = 6 mg intranasal, single nostril
[8] = 8 mg intranasal, single nostril
[9] = 10 mg intranasal, single nostril
[10] = 12 mg (biphasic): 4 mg one nostril then 8 mg other nostril
[11] = 12 mg biphasic vs 12 mg monophasic
[12] = 12 mg intranasal, single nostril (monophasic)
[13] = 12 mg total dose, biphasic (4 mg + 8 mg)

Q: For `COc1ccc2[nH]cc(CCN(C)C)c2c1.Cl` [5-MeO-DMT HCl], which “mean concentration profiles between doses” value ([1]; 5 mg, 8 mg, 10 mg, 11 mg and 14 mg intranasal) is on record?
A: The value was “substantially similar”.

Q: And the dose-proportional pharmacokinetics ([1]; intranasal, healthy subjects)?
A: The dose-proportional pharmacokinetics was “does not display dose-proportional pharmacokinetics”.

Q: Which “Duration of the trip (estimate based on intensity)” value (“Duration of the trip” for short) ([2]; 4 mg intranasal) does the source give for `COc1ccc2[nH]cc(CCN(C)C)c2c1.O=C(O)c1ccccc1` [5-MeO-DMT benzoate, 5-methoxy-N,N-dimethyltryptamine (5-MeO-DMT) Benzoate] here?
A: The value was 18 min.

Q: And the “Duration of the trip” value [2, 7]?
A: The value was 31 min.

Q: What about the “Duration of the trip” value [2, 8] of the same compound?
A: The value was 40 min.

Q: And the “Duration of the trip” value [2, 9]?
A: Its value is 46 min.

Q: And the “Duration of the trip” value [2, 10]?
A: Its value is 70 min.

Q: What about the “length of psychedelic experience, comparison” value [2, 11] of the same compound?
A: Its value is “longer psychedelic experience”.

Q: And the “duration of ‘trip’, comparison” value ([2]; 12 mg biphasic vs other doses)?
A: Its value is “longer duration of ‘trip’”.

Q: What about the “Duration of the trip” value [2, 12] of the same compound?
A: Its value is 50 min.

Q: And the “subjective intensity/mystical experience despite lower peak plasma concentration” value ([2]; biphasic administration)?
A: The value was “did not result in a lower subjective intensity/mystical experience”.

Q: And the hygroscopicity [3]?
A: The hygroscopicity was “moderately hygroscopic”.

Q: What about the AUC inf ([4]; 4 mg intranasal) of the same compound?
A: The AUC inf was 5.0 ng·h/mL.

Q: What about the Cmax ([4]; 4 mg intranasal) of the same compound?
A: The Cmax was 8.7 ng/mL.

Q: And the Tmax ([4]; 4 mg intranasal)?
A: The Tmax was 7.0 min.

Q: And the T½ ([4]; 4 mg intranasal)?
A: Its T½ is 22.4 min.

Q: And the AUC inf [4, 7]?
A: Its AUC inf is 9.8 ng·h/mL.

Q: And the Cmax [4, 7]?
A: The Cmax was 14.9 ng/mL.

Q: And the Tmax [4, 7]?
A: The Tmax was 9.0 min.

Q: And the T½ [4, 7]?
A: The T½ was 22.2 min.

Q: And the AUC inf [4, 8]?
A: Its AUC inf is 14 ng·h/mL.

Q: And the Cmax [4, 8]?
A: The Cmax was 22.1 ng/mL.

Q: What about the Tmax [4, 8] of the same compound?
A: Its Tmax is 10.6 min.

Q: And the T½ [4, 8]?
A: Its T½ is 17.7 min.

Q: And the AUC inf [4, 9]?
A: The AUC inf was 15.4 ng·h/mL.

Q: And the Cmax [4, 9]?
A: Its Cmax is 32.3 ng/mL.

Q: And the Tmax [4, 9]?
A: The Tmax was 8.4 min.

Q: And the T½ [4, 9]?
A: The T½ was 22.7 min.

Q: And the AUC inf [4, 10]?
A: Its AUC inf is 10.7 ng·h/mL.

Q: What about the Cmax [4, 10] of the same compound?
A: Its Cmax is 16.7 ng/mL.

Q: What about the Tmax [4, 10] of the same compound?
A: Its Tmax is 27 min.

Q: And the T½ [4, 10]?
A: Its T½ is 16.1 min.

Q: What about the “peak plasma concentration, comparison” value [4, 11] of the same compound?
A: Its value is “lower peak plasma concentration”.

Q: And the “rise to peak mean plasma concentration” value [4, 11]?
A: Its value is “slower rise to peak mean plasma concentration”.

Q: And the “mean Cmax” value ([4]; 12 mg dosage, intranasal)?
A: Its value is 29 ng/mL.

Q: And the AUC inf [4, 12]?
A: Its AUC inf is 23 ng·h/mL.

Q: What about the Cmax [4, 12] of the same compound?
A: The Cmax was 28.9 ng/mL.

Q: And the Tmax [4, 12]?
A: The Tmax was 15.3 min.

Q: And the T½ [4, 12]?
A: The T½ was 26.6 min.

Q: And the “observed peak plasma concentration vs prediction” value ([4]; biphasic administration)?
A: The value was “significantly lower than that which was expected”.

Q: And the “dose linearity of pharmacokinetics” value ([4]; intranasal, healthy subjects)?
A: Its value is “approximately dose linear”.

Q: And the efficacy ([5]; 4 mg first dose followed by 8 mg second dose)?
A: The efficacy was “good efficacy”.

Q: And the “Peak exp. (%)” value ([5]; 4 mg intranasal)?
A: Its value is 0%.

Q: And the “Peak exp. (%)” value [5, 7]?
A: Its value is 25%.

Q: What about the “Peak exp. (%)” value [5, 8] of the same compound?
A: Its value is 20%.

Q: And the “Peak exp. (%)” value [5, 9]?
A: Its value is 60%.

Q: And the “Peak exp. (%)” value [5, 10]?
A: The value was 66%.

Q: And the “% peak experience, comparison” value ([5]; 12 mg biphasic vs other doses)?
A: The value was “the highest % peak experience”.

Q: What about the “Peak exp. (%)” value [5, 12] of the same compound?
A: The value was 60%.

Q: And the “individuals who achieved mystical experiences” value [5, 13]?
A: Its value is 4/6.

Q: And the “success rate (mystical experiences, MEQ30)” value (“success rate” below) [5, 13]?
A: The value was 66%.

Q: And the MEQ30 score ([5]; single intranasal dose)?
A: The MEQ30 score was over 3.

Q: And the “success rate” value ([5]; singular 10 mg dose)?
A: The value was 60%.

Q: And the “success rate” value ([5]; singular 12 mg dose)?
A: Its value is 60%.

Q: What about the stability profile (Stability profile) of the same compound?
A: The stability profile was “good stability profile”.

Q: And the “Vomiting (% subj. incl. PBO)” value ([6]; 4 mg intranasal)?
A: Its value is 33%.

Q: What about the “Vomiting (% subj. incl. PBO)” value [6, 7] of the same compound?
A: The value was 0%.

Q: What about the “Vomiting (% subj. incl. PBO)” value [6, 8] of the same compound?
A: The value was 0%.

Q: And the “Vomiting (% subj. incl. PBO)” value [6, 9]?
A: Its value is 0%.

Q: And the “Vomiting (% subj. incl. PBO)” value [6, 10]?
A: Its value is 17%.

Q: And the “Vomiting (% subj. incl. PBO)” value [6, 12]?
A: The value was 29%.

Q: And the overall tolerability profile ([6]; intranasal)?
A: The overall tolerability profile was “good (and better than the corresponding and better known chloride salt)”.

Q: What about the irritation tolerability (Irritation tolerability) of the same compound?
A: The irritation tolerability was “good irritation tolerability”.

Q: Which results are given for `Br.COc1ccc2[nH]cc(CCN(C)C)c2c1` [5-MeO-DMT hydrobromide]?
A: hygroscopicity [3]: substantially non-hygroscopic; solubility (Solubility of salts): high solubility

Q: Which “rapid increase of water uptake” value ([3]; 90% RH) does the source give for `COc1ccc2[nH]cc(CCN(C)C)c2c1` [5-MeO-DMT ketoglutarate] here?
A: The value was 28.140 w/w.

Q: And the “gradual water uptake, lower humidity” value ([3]; 403RH as printed)?
A: Its value is 0.13 % w/w.

Q: What about the “gradual water uptake, upper humidity” value ([3]; 801 RH as printed) of the same compound?
A: The value was 2.55 w/w.

Q: Which hygroscopicity [3] does the source give for `COc1ccc2[nH]cc(CCN(C)C)c2c1.O=C(O)C(=O)O` [5-MeO-DMT oxalate] here?
A: Its hygroscopicity is “moderately hygroscopic”.

Q: For `COc1ccc2[nH]cc(CCN(C)C)c2c1` [5-MeO-DMT phosphate], which hygroscopicity ([3]; listed as phosphate salt) is on record?
A: The hygroscopicity was “slightly hygroscopic”.

Q: Which total water uptake [3] does the source give for `COc1ccc2[nH]cc(CCN(C)C)c2c1` [5-MeO-DMT tartrate] here?
A: The total water uptake was “approximately 3.3 % w/w”.

Q: And the hygroscopicity ([3]; listed as tartrate salt of 5-MeO-DMT)?
A: Its hygroscopicity is “moderately hygroscopic”.

Q: Which results are given for `COc1ccc2[nH]cc(CCN(C)C)c2c1` [5-MeO-DMT tosylate]?
A: total water uptake [3]: approximately 1.9 % w/w; hygroscopicity ([3]; listed as tosylate salt): slightly hygroscopic

Q: With `COc1ccc2[nH]cc(CCN(C)C)c2c1` [5-MeO-DMT, 5-methoxy-N,N-dimethyltryptamine] as the compound, how does the “shape of mean plasma concentration curve” value ([4]; biphasic administration) read?
A: Its value is “m-like biphasic curve”.

Q: For `CN(C)CCc1c[nH]c2ccc(O)cc12` [Bufotenin], which “detection of the O-demethylated metabolite in plasma” value ([4]; 6 mg dose level of 5-MeO-DMT benzoate, after the 16 minutes time point) is on record?
A: The value was “only detected at very low levels”.
